From patent US5061720A, “Substituted-4-thiazolidinone derivatives” (A. H. Robins Company, Inc., priority 1989, dated 1991)

Legend:
5-lipoxygenase = molecular target: T1, 5-lipoxygenase (Homo sapiens, UniProt P09917); experiment: 5-Lipoxygenase Assay (production of 5-HETE from arachidonic acid in polymorphonuclear leukocytes stimulated by A23187); assay type: cell-based; details: inhibition of production of 5-HETE, human PMN cells, calcium ionophore A23187, 37° C.
T1 construct: Polymorphonuclear leukocytes were obtained from whole human blood; endogenous in cells; host or cells: human polymorphonuclear leukocytes from whole blood, stimulated with A23187
T1 sequence (P09917 1-674): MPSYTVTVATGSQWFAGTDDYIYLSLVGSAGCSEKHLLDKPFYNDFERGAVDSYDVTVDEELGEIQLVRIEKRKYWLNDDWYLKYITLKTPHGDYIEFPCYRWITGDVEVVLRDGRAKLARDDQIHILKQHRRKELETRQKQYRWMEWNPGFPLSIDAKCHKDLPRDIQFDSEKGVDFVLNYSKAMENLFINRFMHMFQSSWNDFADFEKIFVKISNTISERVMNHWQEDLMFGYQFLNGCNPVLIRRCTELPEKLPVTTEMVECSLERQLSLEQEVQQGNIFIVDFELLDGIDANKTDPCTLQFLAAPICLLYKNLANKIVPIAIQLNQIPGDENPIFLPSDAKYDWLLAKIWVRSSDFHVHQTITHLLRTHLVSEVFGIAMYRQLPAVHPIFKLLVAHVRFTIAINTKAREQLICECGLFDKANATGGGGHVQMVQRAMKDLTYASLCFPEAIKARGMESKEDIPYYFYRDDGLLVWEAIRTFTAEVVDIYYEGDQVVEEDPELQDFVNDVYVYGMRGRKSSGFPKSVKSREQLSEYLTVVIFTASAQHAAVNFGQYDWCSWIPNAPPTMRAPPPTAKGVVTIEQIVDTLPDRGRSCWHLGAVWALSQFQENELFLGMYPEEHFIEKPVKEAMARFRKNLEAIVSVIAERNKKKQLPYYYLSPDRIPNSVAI
Protocol: The production of 5-HETE from arachidonic acid in human polymorphonuclear leukocytes stimulated by the calcium ionophore A23187 (Calbiochemicals) was measured by reverse phase high pressure liquid chromatography. This procedure is a modification of the procedure of Sun and McGuire, PROSTAGLANDINS, 26, 211-221 (1983). Addition of substances to the test system that inhibit 5-lipoxygenases cause a decrease in the production of 5-HETE and is thus determined in comparison to reference and control articles also added to the reaction system.
Polymorphonuclear leukocytes were obtained from whole human blood by the procedure of Skoog and Beck, BLOOD, 11, 436-454 (1956). […] The tube is incubated for an additional 10 min at 37° C. and the incubations terminated by addition of 1.5 mL of acetone and cooling to 0° C. 13-Hydroxyoctadecatrienoic acid (13-HODT) (5 μL of 0.2 mM methanolic solution) is added for an internal reference standard. The tube is stored at -20° C. under argon for 4-18 hr. Centrifugation at 1000×g for 10 min causes protein precipitate to form a pellet. The acetone layer is evaporated under a stream of nitrogen and the resultant lipid residue containing the arachidonic acid metabolites and 13-HODT is dissolved in 0.5 mL of methanol and stored at -20° C. until analyzed by high-pressure liquid chromatography (HPLC).
For analysis, a 150-μL aliquot of the methanol solution is evaporated under a stream of argon. The residue is reconstituted with 100 μL of a 1:1 methanol-water mixture and sonified for 15-20 seconds and the mixture analyzed by HPLC (C18 reversed phase Econophere column, methanol:water:acetic acid 79:25:0.2 v/v/v used for elution). Test, reference, and control articles are evaluated in duplicate. The inhibition is reported as that concentration which will inhibit by 50% the production of 5-HETE.

cyclooxygenase = molecular target: T2, cyclooxygenase (Ovis aries, UniProt P05979); experiment: Cyclooxygenase Assay (polarigraphic oxygen consumption, lipid-depleted sheep seminal vesicle microsomes); assay type: biochemical; details: 30° C., 2 min incubation, ammonium arachidonate substrate
T2 construct: Lipid-depleted Sheep Seminal Vesicle Microsome Suspension; from tissue; host or cells: sheep seminal vesicle microsomes (lipid-depleted powder, detergent solubilized)
T2 sequence (P05979 25-600): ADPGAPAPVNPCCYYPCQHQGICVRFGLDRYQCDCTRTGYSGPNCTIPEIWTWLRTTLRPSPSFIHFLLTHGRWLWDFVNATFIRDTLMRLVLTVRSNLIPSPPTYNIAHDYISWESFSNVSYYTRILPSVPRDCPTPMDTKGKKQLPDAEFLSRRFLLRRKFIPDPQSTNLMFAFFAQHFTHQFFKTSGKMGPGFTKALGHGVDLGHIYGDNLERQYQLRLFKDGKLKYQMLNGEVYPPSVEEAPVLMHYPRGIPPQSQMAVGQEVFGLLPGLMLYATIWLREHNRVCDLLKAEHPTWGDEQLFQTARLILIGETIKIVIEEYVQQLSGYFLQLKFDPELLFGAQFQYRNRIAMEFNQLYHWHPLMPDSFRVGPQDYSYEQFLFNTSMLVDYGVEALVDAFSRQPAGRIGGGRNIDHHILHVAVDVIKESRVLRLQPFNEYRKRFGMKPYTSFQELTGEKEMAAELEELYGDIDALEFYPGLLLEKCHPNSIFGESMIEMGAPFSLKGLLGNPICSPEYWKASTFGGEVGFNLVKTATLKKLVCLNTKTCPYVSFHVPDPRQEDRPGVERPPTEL
Protocol: Cyclooxygenase activity was determined polarigraphically with detergent solubilized, lipid-depleted sheep seminal vesical microsomes. Addition of test articles that inhibit cyclooxygenase, including reference standards, cause a decrease in the rate of oxygen consumption in the reactions. Cyclooxygenase activity is determined using the following procedures:
I. Preparation of Test Materials
1. Lipid-Depleted Sheep Seminal Vesicle Microsomal Powder. This preparation follows the procedure of G. Graff et al. J. Biol. Chem. 253, 7662 (1978).
2. Ammonium Arachidonate Solution. A 250 μL aliquot of 20.0 mM arachidonic acid in absolute ethanol and a 50-μL aliquot of concentrated ammonium hydroxide is placed into a test tube. The solvent and excess ammonium hydroxide is evaporated under a stream of nitrogen at room temperature. The ammonium arachidonate residue is dissolved in 500 μL of 100 mM 2-amino-2-hydroxymethyl-1,3-propanediol hydrochloride (Tris HCl) buffer (pH 8.0) by using a vortex mixer. The final concentration of ammonium arachidonate (working solution) is 10.0 mM.
3. Enzyme Buffer 100 mM Tris HCl (pH 8.0) containing 2.0 mM phenol, 5.0 mM ethylenediaminetetraacetic acid (EDTA), 5.0 mM diethyldithiocarbamic acid and 1.0% Tween 20.
4. Reaction Buffer 100 mM Tris HCl (pH 8.0) containing 2.0 μM hematin and 1.0 mM phenol (prepared daily).
5. Detergent Solubilized Lipid-depleted Sheep Seminal Vesicle Microsome Suspension. Ten mg (solid) of lipid-depleted microsomal powder from sheep seminal vesicles is suspended in 1.0 mL of enzyme buffer and kept at 4° C. until used.
6. Solutions of Test (Formula I compound) or Reference Articles. Test and reference articles are dissolved in the reaction buffer prepared in 4) or a solvent that will not interfere with cyclooxygenase activity, e.g., dimethylsulfoxide, ethanol or acetone.
II. Cyclooxygenase Inhibition Assay
Three mL of the reaction buffer and 20 μL of the microsomal enzyme suspension are placed in a Yellow Springs Instrument (YSI) oxygen chamber where the temperature is maintained at 30° C. by means of a temperature controlled circulating water bath. Aliquots of the solutions containing ≤[…] of Formula I compound (test article) or reference article [see 6) above] are added to the YSI chamber and incubated for 2 minutes. The reaction is initiated by addition of 30 μL of the 10 mM ammonium arachidonate solution and cyclooxygenase activity determined polarigraphically using an oxygen electrode by measuring the rate of oxygen consumption [Cook et al., Anal. Biochem 96 341-51 (1979) and Cook and Lands, Can. J. Biochem. 53, 1220-1231 (1975)].
Test, reference, and control articles were evaluated in triplicate. Cyclooxygenase activity was determined from the slope (mv/unit time) of the recorder tracing with 1 mV being proportional to a 2.34 μM change in oxygen concentration.
The IC50 (concentration of test or reference article that inhibits the reaction by 50%) was calculated from cumulative plots relating the extent of inhibition of cyclooxygenase activity in control group assays to increasing concentrations of test article. Where no inhibition exists, the IC50 is expressed as greater than the highest concentration of the drug tested.

guinea pig skin = experiment: UV-Erythema in Guinea Pigs; assay type: in vivo; parameters: key: +: active; -: inactive; details: topical, 50 μL of cream with 1.0 mg test article per 1 g, immediately after UV exposure; active = composite score significantly lower than control, Dunnett's t-test p≤0.05
Protocol: I. Preparation of Formulation (cream)
All drugs tested were prepared by thoroughly incorporating 1.0 mg of the test article into 1 g of a pH 7.0 cream vehicle of the following composition.
methyl glucose sesquistearate 1.6%
methyl gluceth-20 sesquistearate 2.4%
emulsifying wax, N.F. 5.0%
mineral oil (heavy), U.S.P. 1.0%
white petrolatum, U.S.P. 5.0%
stearic acid, U.S.P. 2.5%
sodium benzoate, N.F. 0.1%
magnesium aluminum silicate 1.5%
deionized water, pH 7.0 64.8%
The preparations were packed into 1-cc plastic syringes.
II. Pharmacological Assay
The backs of female, English short hair guinea pigs (250-500 g) were shaved and depilated with Nair®. Control and treated groups each consisted of 5 animals, and selection of the animals and the control and treatment groups was achieved by random procedures. A rubber sheet with three one-half inch holes spaced one-half inch apart was draped over backs of the guinea pigs. The guinea pigs were then exposed to ultraviolet (UV) light (Hanovia Model 10, ~650-800 μW/cm^2) for 15 seconds by holding the animals against the light source. Fifty μL of the test drug or reference drug (indomethacin or bromfenac) preparation were immediately rubbed onto the skin, either on the area exposed to UV light or to an area adjacent to the UV light exposed skin. The degree of erythema for each exposed area was scored at various times following exposure according to the following scale:
1=slight redness with faint outline
2=moderate to marked redness with distinct outline
The score was totaled for each guinea pig (maximum score is 6). The Dunnett's t-test was used to determine significant (p≤0.05) differences from the control (placebo treated) group.

Row | Structure (SMILES) | IC50 (5-lipoxygenase) | IC50 (cyclooxygenase) | U.V. erythema (+ = active, - = inactive) (guinea pig skin)
1 | CCCC[C@@H]1S[C@H](c2cccc(Oc3ccccc3)c2)N(c2ccc(O)cc2)C1=O (relative stereo) [Example 3, 5-Butyl-3-(4-hydroxyphenyl)-2-(3-phenoxyphenyl)-4-thiazolidinone] | 5000 nM | 8000 nM | –
2 | CCCC[C@@H]1S[C@@H](c2cccc(C(=O)c3ccccc3)c2)N(c2ccc(O)cc2)C1=O (relative stereo) [Example 22, 2-(3-Benzoylphenyl)-5-butyl-3-(4-hydroxyphenyl)-4-thiazolidinone] | 6400 nM | 2200 nM | –
3 | CCCCC1SC(c2cccc(Oc3ccccc3)c2)N(CCc2ccccn2)C1=O (stereo not shown) [Example 18, 5-Butyl-2-(3-phenoxyphenyl)-3-[2-(2-pyridinyl)ethyl]-4-thiazolidinone] | 7800 nM | 120 nM | –
4 | CCCCC1SC(c2cccc(Oc3ccccc3)c2)N(CCc2ccc(O)cc2)C1=O (stereo not shown) [Example 59, 5-Butyl-3-[2-(4-hydroxyphenyl)ethyl]-2-(3-phenoxyphenyl)-4-thiazolidinone] | – | – | +

Continued, in another order:

Row | IC50 (5-lipoxygenase) | IC50 (cyclooxygenase) | Structure (SMILES) | U.V. erythema (+ = active, - = inactive) (guinea pig skin)
5 | ~10000 nM | 1000 nM | CCCCC1SC(c2cccc(Oc3ccccc3)c2)N(CCCCCCC(=O)OCC)C1=O (stereo not shown) [Example 55, 5-Butyl-4-oxo-2-(3-phenoxyphenyl)-3-thiazolidineheptanoic acid ethyl ester] | –
6 | – | 50 nM | CCCC[C@@H]1S[C@H](c2cccc(Oc3ccccc3)c2)N(CCCCc2ccc(C(=O)OCC)cc2)C1=O (relative stereo) [Example 6, 4-[4-[5-Butyl-4-oxo-2-(3-phenoxyphenyl)-3-thiazolidinyl]butyl]benzoic acid ethyl ester] | –
7 | – | 70 nM | CCCC[C@@H]1S[C@@H](c2cccc(Oc3ccccc3)c2)N(CCCCc2ccc(C(=O)OCC)cc2)C1=O (relative stereo) [Example 5, 4-[4-[5-Butyl-4-oxo-2-(3-phenoxyphenyl)-3-thiazolidinyl]butyl]benzoic acid ethyl ester] | –
8 | 3500 nM | 1600 nM | CCCCC1SC(c2cccc(Oc3ccccc3)c2)N(CCCOc2ccc(C(=O)O)cc2)C1=O (stereo not shown) [Example 30, 4-[3-[5-Butyl-4-oxo-2-(3-phenoxyphenyl)-3-thiazolidinyl]propoxy]benzoic acid] | –
